Target: T1, TYK2 (Homo sapiens, UniProt P29597)
T1 construct: Degradation of TYK2 in cells was quantitatively measured using Meso Scale Discovery (MSD) technology; endogenous in cells; host or cells: OCI-LY10
Test: TYK2 MSD degradation in OCI-LY10 cells
Type: cell-based
Details: OCI-LY10 cells, 4 to 24 hours incubation; for DC50: read-out: TYK2 MSD OCI-LY10 Rel-DC50
Outline: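 OCI-LY10 cells were treated with 9-dose 1:3 series (top 1 to 10 μM final) for 4 to 24 hours at 37° C. Lysate TYK2 quantified by MSD sandwich immunoassay; DC50 and Dmax from four-parameter inhibitor vs. response fit.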

T1 sequence (P29597 whole entry): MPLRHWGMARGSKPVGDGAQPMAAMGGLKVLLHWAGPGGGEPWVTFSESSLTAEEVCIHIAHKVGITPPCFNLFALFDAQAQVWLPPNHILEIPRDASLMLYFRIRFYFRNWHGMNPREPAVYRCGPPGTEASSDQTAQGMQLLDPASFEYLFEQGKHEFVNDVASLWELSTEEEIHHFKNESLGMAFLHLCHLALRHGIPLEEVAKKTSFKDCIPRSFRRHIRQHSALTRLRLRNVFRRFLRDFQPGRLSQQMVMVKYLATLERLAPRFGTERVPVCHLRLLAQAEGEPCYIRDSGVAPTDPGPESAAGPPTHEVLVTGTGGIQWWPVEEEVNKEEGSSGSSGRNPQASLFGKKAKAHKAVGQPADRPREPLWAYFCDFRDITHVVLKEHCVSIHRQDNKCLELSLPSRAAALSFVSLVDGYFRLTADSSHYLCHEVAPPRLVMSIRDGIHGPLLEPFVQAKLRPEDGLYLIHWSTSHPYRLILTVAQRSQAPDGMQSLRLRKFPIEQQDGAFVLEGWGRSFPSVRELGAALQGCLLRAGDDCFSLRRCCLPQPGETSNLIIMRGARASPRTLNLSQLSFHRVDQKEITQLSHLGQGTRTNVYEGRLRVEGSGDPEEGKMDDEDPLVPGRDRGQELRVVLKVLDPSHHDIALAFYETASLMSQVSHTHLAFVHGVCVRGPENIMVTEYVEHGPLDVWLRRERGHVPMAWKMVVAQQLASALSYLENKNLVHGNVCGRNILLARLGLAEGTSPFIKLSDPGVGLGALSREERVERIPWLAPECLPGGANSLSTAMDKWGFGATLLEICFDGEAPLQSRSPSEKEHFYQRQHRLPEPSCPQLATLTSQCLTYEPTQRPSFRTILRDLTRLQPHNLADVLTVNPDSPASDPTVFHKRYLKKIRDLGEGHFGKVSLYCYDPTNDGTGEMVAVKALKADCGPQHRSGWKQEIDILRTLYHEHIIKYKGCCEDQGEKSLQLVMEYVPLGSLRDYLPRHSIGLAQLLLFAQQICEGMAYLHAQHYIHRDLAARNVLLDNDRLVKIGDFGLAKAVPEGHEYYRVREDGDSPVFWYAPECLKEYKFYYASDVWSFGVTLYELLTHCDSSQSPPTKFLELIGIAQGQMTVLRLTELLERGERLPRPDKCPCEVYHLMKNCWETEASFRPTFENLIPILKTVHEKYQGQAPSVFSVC

SMILES | TYK2 MSD OCI-LY10 Dmax % | DC50 | Dmax
CNc1cc(N2CCc3c(-c4ccc(CN5CCC(N6CC(N7CCN(c8ccc9c(c8F)n(C)c(=O)n9C8CCC(=O)NC8=O)CC7)C6)C(F)(F)C5)cn4)cccc32)nn2c(C(=O)N[C@@H]3C[C@@H]3F)cnc12 (stereo partly shown) [I-470] | B (B (90 to >75%)) | < 1 nM | –
CNc1cc(N2CCc3c(CN4CCC(N5CC(N6CCN(c7cccc8c7n(C)c(=O)n8C7CCC(=O)NC7=O)CC6)C5)C(F)(F)C4)cccc32)nn2c(C(=O)N[C@@H]3C[C@@H]3F)cnc12 (stereo partly shown) [I-471] | B (B (90 to >75%)) | < 1 nM | –
CNc1cc(N2CCc3c(C#CCN4CCC(N5CCC6(CCN(c7ccc8c(c7)n(C)c(=O)n8C7CCC(=O)NC7=O)CC6)CC5)C(F)(F)C4)cccc32)nn2c(C(=O)N[C@@H]3C[C@@H]3F)cnc12 (stereo partly drawn) [I-486, 6-(4-(3-(4-(9-(1-(2,6-Dioxopiperidin-3-yl)-3-methyl-2-oxo-2,3-dihydro-LH-benzo[d]imidazol-5-yl)-3,9-diazaspiro[5.5]undecan-3-yl)-3,3-difluoropiperidin-1-yl)prop-1-yn-1-yl)indolin-1-yl)-N-((1R,2S)-2-fluorocyclopropyl)-8-(methylamino)imidazo[1,2-b]pyridazine-3-carboxamide] | – | < 10 nM | 75 to 90%
CNc1cc(N2CCc3c(CN4CCC(N5CCC(CC#Cc6cccc7c6n(C)c(=O)n7C6CCC(=O)NC6=O)CC5)C(F)(F)C4)cccc32)nn2c(C(=O)NC3CC3F)cnc12 (stereo not shown) [I-488] | D (D (<50%)) | 10 to 100 nM | –
CNc1cc(N2CCc3c(-c4ccc(CN5CC6(CCN(C(=O)c7ccc(Cl)c(C8CCC(=O)NC8=O)c7)CC6(F)F)C5)cn4)cccc32)nn2c(C(=O)N[C@@H]3C[C@@H]3F)cnc12 (stereo partly shown) [I-502] | A (A (>90%)) | < 1 nM | –
CNc1cc(N2CCc3c(N4CCC(CN5CCC6(CC5)CCN(c5ccc(Cl)c(C7CCC(=O)NC7=O)c5)CC6)CC4)cccc32)nn2c(C(=O)N[C@@H]3C[C@@H]3F)cnc12 (stereo partly shown) [I-513] | D (D (<50%)) | 10 to 100 nM | –
CNc1cc(N2CCc3c(-c4ccc(OCCC5CCN(C(=O)c6ccc(Cl)c(N7CCC(=O)NC7=O)c6)CC5)cn4)cccc32)nn2c(C(=O)N[C@@H]3C[C@@H]3F)cnc12 [I-617] | C (C (75 to 50%)) | < 10 nM | –
CNc1cc(N2CCc3c(-c4ccc(CN5CC6(CCN(C(=O)c7cc(Cl)c(C)c(N8CCC(=O)NC8=O)c7)CC6(F)F)C5)cn4)cccc32)nn2c(C(=O)N[C@@H]3C[C@@H]3F)cnc12 [I-634] | A (A (>90%)) | < 1 nM | –
CNc1cc(N2CCc3c(-c4ccc(CN5CC6(CCN(C(=O)c7ccc(Cl)c(N8CCC(=O)NC8=O)c7)CC6(F)F)C5)cn4)cccc32)nn2c(C(=O)NC3CC(F)(F)C3)cnc12 [I-653] | B (B (90 to >75%)) | < 10 nM | –
CNc1cc(N2CCc3c(-c4ccc(CC5CCC6(CC5)CCN(C(=O)c5ccc(Cl)c(N7CCC(=O)NC7=O)c5)CC6)cn4)cccc32)nn2c(C(=O)N[C@@H]3C[C@@H]3F)cnc12 [I-654] | B (B (90 to >75%)) | < 10 nM | –
CNc1cc(N2CCc3c(-c4ccc(CN5CCC6(CCN(C(=O)c7cc(C)c(Cl)c(N8CCC(=O)NC8=O)c7)CC6)C(F)(F)C5)cn4)cccc32)nn2c(C(=O)N[C@@H]3C[C@@H]3F)cnc12 [I-655] | B (B (90 to >75%)) | < 10 nM | –
CNc1cc(N2CCc3c(-c4ccc(CN5CCC6(CCN(C(=O)c7cc(F)c(Cl)c(N8CCC(=O)NC8=O)c7)CC6)C(F)(F)C5)cn4)cccc32)nn2c(C(=O)N[C@@H]3C[C@@H]3F)cnc12 [I-656] | B (B (90 to >75%)) | < 1 nM | –
CNc1cc(N2CCc3c(-c4ccc(CN5CCC6(CCN(C(=O)c7cc(F)c(C)c(N8CCC(=O)NC8=O)c7)CC6)C(F)(F)C5)cn4)cccc32)nn2c(C(=O)N[C@@H]3C[C@@H]3F)cnc12 [I-657] | A (A (>90%)) | < 1 nM | –
CNc1cc(N2CCc3c(CC4CCN(C5CCC6(CCN(C(=O)c7ccc(Cl)c(N8CCC(=O)NC8=O)c7)CC6)OC5)CC4)cccc32)nn2c(C(=O)N[C@@H]3C[C@@H]3F)cnc12 (stereo partly shown) [I-685] | C (C (75 to 50%)) | < 10 nM | –
CNc1cc(N2CCc3c(CC4CCN(C5CCC6(CC5)CCN(C(=O)c5ccc(Cl)c(N7CCC(=O)NC7=O)c5)CC6)CC4(F)F)cccc32)nn2c(C(=O)N[C@@H]3C[C@@H]3F)cnc12 (stereo partly shown) [I-686] | B (B (90 to >75%)) | < 10 nM | –
CNc1cc(N2CCc3c(CCN4CCC(N5CCC6(CCN(C(=O)c7ccc(Cl)c(N8CCC(=O)NC8=O)c7)CC6)CC5)C(F)(F)C4)cccc32)nn2c(C(=O)NC3CC3F)cnc12 (stereo not shown) [I-687] | B (B (90 to >75%)) | < 1 nM | –
CNc1cc(N2CCc3c(CC4CN(C5CCN(C6CCN(C(=O)c7ccc(Cl)c(N8CCC(=O)NC8=O)c7)CC6)CC5(F)F)C4)cccc32)nn2c(C(=O)N[C@@H]3C[C@@H]3F)cnc12 (stereo partly shown) [I-698] | B (B (90 to >75%)) | < 1 nM | –
CNc1cc(N2CCc3c(C#CCN4CCC(N5CCC6(CCN(C(=O)c7ccc(Cl)c(N8CCC(=O)NC8=O)c7)CC6)CC5)C(F)(F)C4)cccc32)nn2c(C(=O)N[C@@H]3C[C@@H]3F)cnc12 (stereo partly shown) [I-700] | B (B (90 to >75%)) | < 1 nM | –

SMILES | TYK2 MSD OCI-LY10 Dmax % | DC50 | Dmax
CNc1cc(N2CCc3c(C#CCN4CCC(N5CC6(CCN(C(=O)c7ccc(Cl)c(N8CCC(=O)NC8=O)c7)CC6)C5)C(F)(F)C4)cccc32)nn2c(C(=O)N[C@@H]3C[C@@H]3F)cnc12 (stereo partly shown) [I-701] | A (A (>90%)) | < 1 nM | –
CNc1cc(N2CCc3c(C#CCN4CCC(N5CCC6(CC5)CN(C(=O)c5ccc(Cl)c(N7CCC(=O)NC7=O)c5)C6)C(F)(F)C4)cccc32)nn2c(C(=O)N[C@@H]3C[C@@H]3F)cnc12 (stereo partly shown) [I-702] | B (B (90 to >75%)) | < 1 nM | –
CNc1cc(N2CCc3c(CN4CCC(N5CCC(N6CCN(C(=O)c7ccc(Cl)c(N8CCC(=O)NC8=O)c7)CC6)CC5)C(F)(F)C4)cccc32)nn2c(C(=O)N[C@@H]3C[C@@H]3F)cnc12 (stereo partly shown) [I-707] | D (D (<50%)) | < 10 nM | –
CNc1cc(N2CCc3c(CC4CCC(N5CCC(N6CCN(C(=O)c7ccc(Cl)c(N8CCC(=O)NC8=O)c7)CC6)C(F)(F)C5)CC4)cccc32)nn2c(C(=O)NC3CC3F)cnc12 (stereo not shown) [I-708] | D (D (<50%)) | < 1 nM | –
CNc1cc(N2CCc3c(-c4cc(CN5CCN(c6cc7c(cc6F)c(N6CCC(=O)NC6=O)nn7C)CC5)ccn4)cccc32)nn2c(C(=O)N[C@@H]3C[C@@H]3F)cnc12 [I-709] | D (D (<50%)) | < 10 nM | –
CNc1cc(N2CCc3c(CN4CCC(N5CC(CN6CCN(C(=O)c7ccc(Cl)c(N8CCC(=O)NC8=O)c7)CC6)C5)C(F)(F)C4)cccc32)nn2c(C(=O)N[C@@H]3C[C@@H]3F)cnc12 (stereo partly shown) [I-710] | B (B (90 to >75%)) | < 10 nM | –
CNc1cc(N2CCc3c(CN4CCC(N5CCC6(CCN(C(=O)c7cc(Cl)c(C)c(N8CCC(=O)NC8=O)c7)CC6)CC5)C(F)(F)C4)cccc32)nn2c(C(=O)N[C@@H]3C[C@@H]3F)cnc12 (stereo partly shown) [I-711] | B (B (90 to >75%)) | < 10 nM | –
CNc1cc(N2CCc3c(CN4CCC(N5CCC6(CCN(C(=O)c7cc(F)c(Cl)c(N8CCC(=O)NC8=O)c7)CC6)CC5)C(F)(F)C4)cccc32)nn2c(C(=O)N[C@@H]3C[C@@H]3F)cnc12 (stereo partly shown) [I-712] | B (B (90 to >75%)) | < 1 nM | –
CNc1cc(N2CCc3c(CN4CCC(N5CCC6(CCN(C(=O)c7cc(C)c(Cl)c(N8CCC(=O)NC8=O)c7)CC6)CC5)C(F)(F)C4)cccc32)nn2c(C(=O)N[C@@H]3C[C@@H]3F)cnc12 (stereo partly shown) [I-713] | B (B (90 to >75%)) | < 10 nM | –
CNc1cc(N2CCc3c(CN4CC[C@@H](N5CCC6(CCN(C(=O)c7ccc(Cl)c(N8CCC(=O)NC8=O)c7)CC6)CC5)C(F)(F)C4)cccc32)nn2c(C(=O)N[C@@H]3C[C@@H]3F)cnc12 [I-714] | B (B (90 to >75%)) | < 1 nM | –
CNc1cc(N2CCc3c(CN4CC[C@H](N5CCC6(CCN(C(=O)c7ccc(Cl)c(N8CCC(=O)NC8=O)c7)CC6)CC5)C(F)(F)C4)cccc32)nn2c(C(=O)N[C@@H]3C[C@@H]3F)cnc12 [I-715] | B (B (90 to >75%)) | < 1 nM | –
CNc1cc(N2CCc3c(CN4CCC(N5CCC(CN6CCN(C(=O)c7ccc(Cl)c(N8CCC(=O)NC8=O)c7)CC6)CC5)C(F)(F)C4)cccc32)nn2c(C(=O)N[C@@H]3C[C@@H]3F)cnc12 (stereo partly shown) [I-716] | B (B (90 to >75%)) | < 1 nM | –
CNc1cc(N2CCc3c(CN4CCC(CCN5CCN(C(=O)c6ccc(Cl)c(N7CCC(=O)NC7=O)c6)CC5)CC4)cccc32)nn2c(C(=O)N[C@@H]3C[C@@H]3F)cnc12 [I-717] | C (C (75 to 50%)) | < 10 nM | –
CNc1cc(N2CCc3c(-c4cc(CN5CCN(c6ccn7c(N8CCC(=O)NC8=O)cnc7c6)CC5)ccn4)cccc32)nn2c(C(=O)N[C@@H]3C[C@@H]3F)cnc12 [I-719] | C (C (75 to 50%)) | < 10 nM | –
CNc1cc(N2CCc3c(-c4cc(CN5CCN(c6noc7cc(N8CCC(=O)NC8=O)ccc67)CC5)ccn4)cccc32)nn2c(C(=O)N[C@@H]3C[C@@H]3F)cnc12 [I-723] | D (D (<50%)) | > 100 nM | –
CNc1cc(N2CCc3c2ccc(F)c3-c2ccc(CN3CCC4(CCN(C(=O)c5cc(C)c(Cl)c(N6CCC(=O)NC6=O)c5)CC4)C(F)(F)C3)cn2)nn2c(C(=O)N[C@@H]3C[C@@H]3F)cnc12 [I-742] | C (C (75 to 50%)) | 10 to 100 nM | –
CNc1cc(N2CCc3c(CCN4CCC(N5CCN(C(=O)c6ccc(Cl)c(N7CCC(=O)NC7=O)c6)CC5)C(F)(F)C4)cccc32)nn2c(C(=O)N[C@@H]3C[C@@H]3F)cnc12 (stereo partly shown) [I-743] | B (B (90 to >75%)) | < 10 nM | –
